Reference: patent US12678512B2, “Anti-EGFR antibody-drug conjugate with a cyclic dinucleotide derivative” (DAIICHI SANKYO COMPANY, LIMITED, priority 2020, dated 2026)

Columns and labels:
[1] = molecular target: T1, human REF mutant (Hu-REF) STING C-terminal binding domain protein (Homo sapiens, UniProt Q86WV6); assay: Protein thermal shift assay, STING binding; conditions: test compound final concentration 0.5 mM
T1 construct: made in house; host or cells: E. coli Rosetta 2 (DE3), co-expressed with BirA
Method: (§1) Each expression strain was added to TB broth containing 100 μg/mL ampicillin, 50 μg/mL streptomycin, and 30 μg/mL kanamycin, and cultured at 37° C. The expression was then induced with 100 μM IPTG, and the cells were further cultured at 16° C.
(§2) The culture broth was centrifuged, and the obtained bacteria were suspended in 50 mM HEPES pH8.0, 500 mM NaCl, 20 mM imidazole, 1 mM DTT, 5% (w/v) glycerol, and cOmplete EDTA free, and then frozen and thawed. After the addition of lysozyme and DNase I, the proteins were extracted by sonication, and the supernatant was collected by centrifugation. The resulting supernatant was purified through a HisTrap FF column (GE Healthcare) using an AKTAexpress chromatography system (GE Healthcare, IL, US), made to pass through a Superdex200 16/60 column (GE Healthcare), and eluted with a buffer (20 mM HEPES pH 7.5, 120 mM NaCl, 20% glycerol, 0.8 mM DTT). […] The protein concentration was measured using a Nanodrop 2000 (Thermo Fisher Scientific, MA, US), and each protein was frozen and stored at −80° C. until use.
(§3) The binding of a compound to each STING C-terminal binding domain protein was determined by the protein thermal shift assay, which uses the increase in the thermal denaturation temperature of the protein as an indicator.
(§4) Specifically, an assay buffer (20 mM Tris-HCl pH7.5, 120 mM NaCl) was applied to wells of a 384-well real-time PCR plate. Next, 3 μL of each test compound (final concentration 0.5 mM), 3 μL of SYPRO Orange Protein Gel Stain (Thermo Fisher Scientific) (final concentration: 20× concentration), and 6 μL of the STING protein were mixed in each well while using a plate shaker. A real-time PCR system (Thermo Fisher Scientific) was used to increase the temperature from 25° C. to 95° C. at a rate of 0.03° C. per second, and the thermal denaturation temperature of the protein was measured using the fluorescence emitted by SYPRO Orange as an indicator. The measured values were analyzed using Protein Thermal Shift software (Thermo Fisher Scientific) to determine Tm (the midpoint of the unfolding transition) (° C.) as the temperature at which the rate of increase in fluorescence intensity reached its maximum value. The shift of Tm by the test compound was calculated as ΔTm (° C.) by subtracting, from the Tm value of each compound, the Tm value of the well without the compound.

[2] = molecular target: T2, mouse wild type (Ms-WT) STING C-terminal binding domain protein (Mus musculus, UniProt Q3TBT3); assay: Protein thermal shift assay, STING binding; conditions: test compound final concentration 0.5 mM
T2 construct: made in house; host or cells: E. coli Rosetta 2 (DE3), co-expressed with BirA
Method: as §1, §2, §3, §4

[3] = molecular target: T3, human HAQ mutant (Hu-HAQ) STING C-terminal binding domain protein (Homo sapiens, UniProt Q86WV6, G230A/H232R/R293Q); assay: Protein thermal shift assay, STING binding; conditions: test compound final concentration 0.5 mM
T3 construct: made in house; host or cells: E. coli Rosetta 2 (DE3), co-expressed with BirA
Method: as §1, §2, §3, §4

[4] = molecular target: T4, human wild-type (Hu-WT) STING C-terminal binding domain protein (Homo sapiens, UniProt Q86WV6, H232R); assay: Protein thermal shift assay, STING binding; conditions: test compound final concentration 0.5 mM
T4 construct: made in house; host or cells: E. coli Rosetta 2 (DE3), co-expressed with BirA
Method: as §1, §2, §3, §4

[5] = molecular target: human STING (THP1-Dual cells, HAQ mutant; IRF3 pathway) (Homo sapiens, UniProt Q86WV6, G230A/H232R/R293Q/R71H); assay: Reporter gene assay, human STING agonist activity in THP1-Dual cells
Method: Human STING agonist activity was evaluated using THP1-Dual™ cells (HAQ mutant) (InvivoGen, CA, US), in which activation of the interferon regulatory factor-3 (IRF3) pathway, which is downstream of the STING pathway, could be checked.
The assay was conducted as follows. First, each test compound diluted in PBS was dispensed at 20 μL/well of a transparent 96-well plate (Corning, NY, US). […] The cells were cultured for 24 h under conditions at 37° C. and 5% CO2, and then centrifuged to collect the supernatant. Next, 6 μL of the collected supernatant was added to a white 384-well plate, and 15 μL of QUANTI-Luc (InvivoGen) solution was added thereto. After well mixing, the luminescence was measured using a plate reader (PerkinElmer, MA, US).

[6] = tested on: CT26.WT-chimeraEGFR cells subcutaneously transplanted in BALB/c mouse; assay: Anti-tumor test (5); format: in vivo; conditions: 0.01 mg/kg into the tail vein once on Day 7, FIG. 24
Method: Then, the supernatant was collected, and the CT26.WT was infected therewith.
In addition, the vehicle group was provided in which acetate buffer was administered. The number of mice in each group was 8.

[7] = tested on: mouse bone marrow-derived dendritic cells; assay: Co-culture assay with CT26.WT or CT26.WT-hCD70 cell line and mouse bone marrow-derived dendritic cells; format: cell-based; conditions: conditions DC, 20 h incubation, FIG. 12
Text: CT26.WT (CRL2638), a mouse colon cancer cell line purchased from American Type Culture Collection, was transduced with human CD70 gene (NP_001243) to establish CT26.WT-hCD70 cells. Specifically, a pLVSIN lentiviral vector (Takara Bio), in which the human CD70 gene was inserted, was constructed. Next, Lenti-X293T cell line (Takara Bio) was transfected with the vector using a Lentiviral High Titer Packaging Mix (Takara Bio). Then, the supernatant was collected, and the CT26.WT was infected therewith. The cells were maintained in medium supplemented with 10 μg/mL puromycin (Thermo Fisher Scientific).
Mouse bone marrow cells were collected from the femur of 5-week-old female BALB/c mice (BALB/cAnNCrlCrlj) (Charles River, Japan). The mouse bone marrow cells were cultured in the presence of […] murine GM-CSF (PEPROTECH) for 7 days to obtain mouse bone marrow-derived dendritic cells. 1.5×10^5 CT26.WT or CT26.WT-hCD70 cell line cells and 1×10^5 mouse bone marrow-derived dendritic cells were seeded per well of a 96-well plate. Each test compound was diluted in RPMI medium (Invitrogen), and 200 μL was added. […] The cells were washed with FCM buffer again and analyzed using a Fortessa (BD Biosciences). MFI of CD86 in CD45^+, CD11c^+, and I-A/I-E^+ fraction was calculated. Then, the ratio with respect to the test compound-free group was calculated. […]

[8] = tested on: CT26.WT-hEGFR cells subcutaneously transplanted in BALB/c mouse; assay: Anti-tumor test (2); format: in vivo; conditions: 1.5 mg/kg into the tail vein once on Day 12, FIG. 15
Text: CT26.WT (CRL2638), a mouse colon cancer cell line purchased from American Type Culture Collection, was transduced with the human EGFR gene (NP_005219.2) to establish CT26.WT-hEGFR cells. Specifically, a pLVSIN lentiviral vector (Takara Bio), in which the human EGFR gene was inserted, was constructed. Next, Lenti-X293T cell line (Takara Bio) was transfected with the vector using a Lentiviral High Titer Packaging Mix (Takara Bio). Then, the supernatant was collected, and the CT26.WT was infected therewith. The cells were maintained in medium supplemented with 10 μg/mL puromycin (Thermo Fisher Scientific).
CT26.WT-hEGFR cells were suspended in saline. Ne×t, 3×10^6 cells were transplanted subcutaneously into the right axillary region of each BALB/c mouse (Day 0), and random grouping was conducted after 12 days. […] In addition, the vehicle group was provided in which acetate buffer was administered. The number of mice in each group was 8.

human STING (THP1-Dual cells, HAQ mutant; IRF3 pathway), sequence (Q86WV6 whole entry R71H/G230A/H232R/R293Q): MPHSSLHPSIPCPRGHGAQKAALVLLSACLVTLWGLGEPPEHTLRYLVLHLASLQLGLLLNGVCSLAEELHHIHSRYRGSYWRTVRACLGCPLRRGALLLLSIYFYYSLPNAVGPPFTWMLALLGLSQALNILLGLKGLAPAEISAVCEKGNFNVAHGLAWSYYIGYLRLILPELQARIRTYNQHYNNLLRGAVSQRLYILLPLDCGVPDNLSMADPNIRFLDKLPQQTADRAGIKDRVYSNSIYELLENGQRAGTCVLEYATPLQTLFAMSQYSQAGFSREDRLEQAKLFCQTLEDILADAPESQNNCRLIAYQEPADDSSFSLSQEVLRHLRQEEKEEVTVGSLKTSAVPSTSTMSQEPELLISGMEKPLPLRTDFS
T1 sequence (Q86WV6 with tags, fused parts or gaps, change not shown): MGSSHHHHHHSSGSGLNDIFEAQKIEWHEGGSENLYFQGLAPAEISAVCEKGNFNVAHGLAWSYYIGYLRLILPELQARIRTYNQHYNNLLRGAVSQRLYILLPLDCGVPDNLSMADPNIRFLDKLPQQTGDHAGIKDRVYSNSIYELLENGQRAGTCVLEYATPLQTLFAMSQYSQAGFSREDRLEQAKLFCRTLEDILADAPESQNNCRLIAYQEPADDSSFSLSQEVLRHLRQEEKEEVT
T2 sequence (Q3TBT3 with tags, fused parts or gaps): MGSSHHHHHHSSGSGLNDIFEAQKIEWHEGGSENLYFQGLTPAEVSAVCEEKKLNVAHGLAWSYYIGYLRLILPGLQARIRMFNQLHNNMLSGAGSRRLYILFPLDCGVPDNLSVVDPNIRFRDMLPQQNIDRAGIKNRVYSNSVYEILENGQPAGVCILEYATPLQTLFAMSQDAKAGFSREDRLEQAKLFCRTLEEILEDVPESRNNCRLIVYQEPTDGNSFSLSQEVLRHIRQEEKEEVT
T3 sequence (Q86WV6 with tags, fused parts or gaps G230A/H232R/R293Q): as the sequence (Q86WV6 with tags, fused parts or gaps, change not shown) above, with G131A, H133R, R194Q counted along it
T4 sequence (Q86WV6 with tags, fused parts or gaps H232R): as the sequence (Q86WV6 with tags, fused parts or gaps, change not shown) above, with H133R counted along it

**Q.** `O=c1c2ncn([C@@H]3O[C@@H]4COP(=O)(S)O[C@H]5[C@@H](O)[C@H](n6cc7c8c(ncnc86)NCCC7)O[C@@H]5COP(=O)(S)O[C@@H]3[C@@H]4O)c2ncn1CCO` (single isomer, unassigned) [Compound 6b] was tested. Which ΔTm at 500 µM [1] did it give?
**A.** 3.4 °C

**Q.** And the ΔTm at 500 µM [2]?
**A.** 12.9 °C

**Q.** What about the ΔTm at 500 µM [3] of the same molecule?
**A.** 11.3 °C

**Q.** And the ΔTm at 500 µM [4]?
**A.** 8.4 °C

**Q.** What about the EC50 [5] of the same molecule?
**A.** 2100 nM

**Q.** What does the source list for `O=c1c2ncn([C@@H]3O[C@@H]4COP(=O)(S)O[C@H]5[C@@H](F)[C@H](n6cc7c8c(ncnc86)NCCC7)O[C@@H]5COP(=O)(S)O[C@@H]3[C@@H]4O)c2ncn1CCO` (single isomer, unassigned) [Compound 34a]?
**A.** tumor growth (tumor volume) [6]: tumor growth was not inhibited; EC50 [5]: 200 nM; CD86 expression on mouse dendritic cells (ratio of MFI with respect to the compound-free group) [7]: caused an increase in CD86 expression on mouse dendritic cells in all conditions

**Q.** What does the source list for `O=C(CO)NCCn1cnc2c(ncn2[C@@H]2O[C@@H]3COP(=O)(S)O[C@H]4[C@@H](F)[C@H](n5cc6c7c(ncnc75)SCCC6)O[C@@H]4COP(=O)(S)O[C@@H]2[C@@H]3O)c1=O` (single isomer, unassigned) [Compound 50b]?
**A.** ΔTm at 500 µM [1]: 6.3 °C; ΔTm at 500 µM [2]: 7.4 °C; ΔTm at 500 µM [3]: 15.3 °C

**Q.** With “anti-EGFR antibody 1: IgG1 isotype with LALA mutation, produced with reference to the Vectibix review report; light chain SEQ ID NO: 9, heavy chain SEQ ID NO: 10” as the molecule, how does the “tumor growth (tumor volume)” value [8] read?
**A.** tumor growth was not inhibited
